Source: BindingDB's records for doi:10.1016/j.bmcl.2007.05.064 (Sungkyunkwan University, 2007)
pIC50: −log10 of the molar value.

Biological target: cGMP-specific 3',5'-cyclic phosphodiesterase (Homo sapiens, UniProt O76074)
Assay: Inhibition of PDE5

pIC50: 6.37
Structure (SMILES): CCCc1nn(C)c2c(=O)[nH]c(-c3cc(S(=O)(=O)N4CCN(C)CC4)cc4c3OCO4)nc12
